Reference: article PMC11191095, “QSAR Reveals Decreased Lipophilicity of Polar Residues Determines the Selectivity of Antimicrobial Peptide Activity” (ACS Omega, 2024)
Where a SMILES comes first, the peptide text is derived from it.

Columns and labels:
Assay in all cases: microbe, parasite or virus in culture
K. pneumoniae M6 = type: cell-based, Klebsiella pneumoniae
Procedure, shortened: (§1)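 Peptides 128→2 μg/mL, 2-fold series; inoculum ~5 × 10^5 CFU/mL from overnight culture (OD600 0.01, mixed 1:1). MHB non-cation-adjusted for bacteria, RPMI 1640 + 2% glucose for fungi. 37 °C, 20 h, OD600. MIC50/MIC90 at 50%/90% inhibition; n ≥ 3.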

K. pneumoniae NCTC 13368 = type: cell-based, Klebsiella pneumoniae; details: K. pneumoniae NCTC 13368 (R)
Procedure, shortened: as §1

C. auris TDG 1912 = type: cell-based, Candida auris; details: TDG 1912, 20 h
Procedure, shortened: as §1

P. aeruginosa NCTC 13437 = type: cell-based, Pseudomonas aeruginosa; details: P. aeruginosa NCTC 13437 (R)
Procedure, shortened: as §1

A. baumannii ATCC 17978 = type: cell-based, Acinetobacter baumannii
Procedure, shortened: as §1

A. baumannii AYE = type: cell-based, Acinetobacter baumannii; details: A. baumannii AYE (R)
Procedure, shortened: as §1

E. coli NCTC 12923 = type: cell-based, Escherichia coli
Procedure, shortened: as §1

E. coli LEC001 = type: cell-based, Escherichia coli
Procedure, shortened: as §1

[1] = test system: C. parapsilosis NCPF 3209; type: cell-based
Procedure, shortened: as §1

C. albicans NCPF 3281 = type: cell-based
Procedure, shortened: as §1

C. tropicalis NCPF 8760 = type: cell-based
Procedure, shortened: as §1

C. glabrata NCPF 8018 = type: cell-based
Procedure, shortened: as §1

C. krusei NCPF 3876 = type: cell-based
Procedure, shortened: as §1

[2] = test system: S. aureus (MRSA) NCTC 13616; type: cell-based, Staphylococcus aureus; details: S. aureus (MRSA) NCTC 13616 (R)
Procedure, shortened: as §1

S. aureus (MRSA) 1199B = type: cell-based, Staphylococcus aureus; details: S. aureus (MRSA) 1199B (R)
Procedure, shortened: as §1

S. aureus (MRSA) USA300 = type: cell-based, Staphylococcus aureus; details: S. aureus (MRSA) USA300 (R)
Procedure, shortened: as §1

[3] = MHB, 37 °C, 20 h, OD600, min. three biological repeats

CC(C)[C@H](NC(=O)CNC(=O)[C@H](CCCNC(=N)N)NC(=O)[C@H](CCCNC(=N)N)NC(=O)[C@H](CS)NC(=O)[C@@H](NC(=O)[C@H](CS)NC(=O)[C@@H](N)CCCNC(=N)N)C(C)C)C(=O)N[C@@H](CS)C(=O)N[C@@H](CCCNC(=N)N)C(=O)N[C@@H](CS)C(=O)N[C@H](C(=O)N[C@@H](CS)C(=O)N[C@@H](CCCNC(=N)N)C(=O)N[C@@H](CCCNC(=N)N)C(N)=O)C(C)C [BTD15a] (H-RCVCRRGVCRCVCRR-NH2; N-terminus assumed)
8.8 µM: Modal MIC (E. coli LEC001; LEC001, 20 h) | Modal MIC50 (C. krusei NCPF 3876; NCPF 3876, 20 h) | Modal MIC90 (C. krusei NCPF 3876; NCPF 3876, 20 h)
8 µg/mL: Modal MIC (A. baumannii AYE; [3]) | Modal MIC (E. coli NCTC 12923; E. coli NCTC 12923 (S), MHB, ~5×10^5 CFU/mL, 37 °C, 20 h, OD600, min. three biological repeats) | Modal MIC50 (C. tropicalis NCPF 8760; C. tropicalis NCPF 8760, 50% growth inhibition, RPMI 1640 + 2% glucose, 37 °C, 20 h) | Modal MIC90 (C. tropicalis NCPF 8760; C. tropicalis NCPF 8760, 90% growth inhibition, RPMI 1640 + 2% glucose, 37 °C, 20 h) | Modal MIC [2, 3] | Modal MIC (S. aureus (MRSA) 1199B; [3]) | Modal MIC (S. aureus (MRSA) USA300; [3])
32 µg/mL: Modal MIC (K. pneumoniae M6; K. pneumoniae M6 (S), MHB, 37 °C, 20 h, OD600, min. three biological repeats) | Modal MIC (K. pneumoniae NCTC 13368; [3]) | Modal MIC50 (C. albicans NCPF 3281; C. albicans NCPF 3281, 50% growth inhibition, RPMI 1640 + 2% glucose, 37 °C, 20 h)
2.2 µM: Modal MIC (A. baumannii ATCC 17978; ATCC 17978, 20 h)
4 µg/mL: Modal MIC (A. baumannii ATCC 17978; A. baumannii ATCC 17978 (S), MHB, 37 °C, 20 h, OD600, min. three biological repeats)
17.5 µM: Modal MIC (K. pneumoniae M6; M6, 20 h) | Modal MIC (K. pneumoniae NCTC 13368; shown in µM) | Modal MIC50 (C. albicans NCPF 3281; NCPF 3281, 20 h)
128 µg/mL: Modal MIC50 ([1]; C. parapsilosis NCPF 3209, 50% growth inhibition, RPMI 1640 + 2% glucose, 37 °C, 20 h) | Modal MIC90 ([1]; C. parapsilosis NCPF 3209, 90% growth inhibition, RPMI 1640 + 2% glucose, 37 °C, 20 h) | Modal MIC50 (C. glabrata NCPF 8018; C. glabrata NCPF 8018, 50% growth inhibition, RPMI 1640 + 2% glucose, 37 °C, 20 h) | Modal MIC90 (C. glabrata NCPF 8018; C. glabrata NCPF 8018, 90% growth inhibition, RPMI 1640 + 2% glucose, 37 °C, 20 h)
4.4 µM: Modal MIC (A. baumannii AYE; shown in µM) | Modal MIC (E. coli NCTC 12923; NCTC 12923, 20 h) | Modal MIC50 (C. tropicalis NCPF 8760; NCPF 8760, 20 h) | Modal MIC90 (C. tropicalis NCPF 8760; NCPF 8760, 20 h) | Modal MIC ([2]; shown in µM) | Modal MIC (S. aureus (MRSA) 1199B; shown in µM) | Modal MIC (S. aureus (MRSA) USA300; shown in µM)
35 µM: Modal MIC90 (C. albicans NCPF 3281; NCPF 3281, 20 h)
70.2 µM: Modal MIC50 ([1]; NCPF 3209, 20 h) | Modal MIC90 ([1]; NCPF 3209, 20 h) | Modal MIC50 (C. glabrata NCPF 8018; NCPF 8018, 20 h) | Modal MIC90 (C. glabrata NCPF 8018; NCPF 8018, 20 h)
64 µg/mL: Modal MIC90 (C. albicans NCPF 3281; C. albicans NCPF 3281, 90% growth inhibition, RPMI 1640 + 2% glucose, 37 °C, 20 h)
> 128 µg/mL: Modal MIC (P. aeruginosa NCTC 13437; [3])
> 70.2 µM: Modal MIC50 (C. auris TDG 1912) | Modal MIC90 (C. auris TDG 1912) | Modal MIC (P. aeruginosa NCTC 13437; shown in µM)
16 µg/mL: Modal MIC (E. coli LEC001; E. coli LEC001 (R), MHB, 37 °C, 20 h, OD600, min. three biological repeats) | Modal MIC50 (C. krusei NCPF 3876; C. krusei NCPF 3876, 50% growth inhibition, RPMI 1640 + 2% glucose, 37 °C, 20 h) | Modal MIC90 (C. krusei NCPF 3876; C. krusei NCPF 3876, 90% growth inhibition, RPMI 1640 + 2% glucose, 37 °C, 20 h)
